Test results from patent US20260069694A1, “IDENTIFICATION OF HIGHLY IMMUNOSUPRESIVE TREG POPULATION IN TUMOR MICROENVIRONMENTS” (THE TRUSTEES OF COLUMBIA UNIVERSITY IN THE CITY OF NEW YORK, priority 2023, published 2026).
“Also recorded” adds a separate entry of the source.

Assays:
[1] = tested on: naïve CD4+ T cells / CD4+CD25+Foxp3+ iTregs; experiment: iTreg induction from naive CD4+ T cells in the absence or presence of iRGD or iRGE; type: cell-based, mouse
Description: Naïve CD4^+ T cells and nTregs were isolated from the spleen of healthy C57B6129SF1/J mice by magnetic separation using a mouse CD4+ T cell isolation kit and PE-conjugated anti-mouse CD25 with anti-PE magnetic separation micro beads (Miltenyi Biotec™). The isolated T cells were stimulated with anti-CD3/CD28 beads (×25 dilution; Miltenyi Biotec™) in the presence or absence of recombinant mouse TGF-β1 (5 ng/ml; Bio-Techne™ Corporation) for 3 days. iRGD (100 μM) or iRGE (100 μM) peptide was added to the cultures in some experiments. To study the effect of TGF-β1 on the induction of αvβ5 integrin+ iTregs, naïve CD4+ T cells were cultured with anti-CD3/CD28 beads (x 25 dilution) and TGF-β1 (5 ng/ml) in the presence or absence of varying concentrations of a TGF-βR1 inhibitor (LY2157299; Selleck™ Chemicals LLC). To study the effect of TCR stimulation on the induction of αvβ5 integrin+ iTregs, naïve CD4+ T cells treated with varying concentrations of plate-coated anti-mouse CD3 Ab (eBioscience™) in the presence of soluble anti-mouse CD28 Ab (2 μg/ml) (eBioscience™) and TGF-β1 (5 ng/ml). The cells were subjected to flow cytometry as described elsewhere.
For the data presented in FIG. 31, FIG. 32A, and FIG. 32B, naïve CD4+ T cells were stimulated with anti-CD3/CD28 Abs and TGF-β1 in the absence or presence of iRGD or iRGE. Flow cytometry was performed to quantify the proportion of CD4+CD25+Foxp3+ iTregs (see FIG. 31) and αvβ5 integrin+ cells among the iTregs (See FIG. 32A). Apoptosis of αvβ5 integrin+ iTregs was quantitated by measuring cleaved caspase 3 using flow cytometry (see FIG. 32B; n=3).
To investigate whether iRGD Reduces CD4+CD25+Foxp3+ iTregs in an RGD-Dependent Manner in Vitro, naïve CD4+ T cells were stimulated with anti-CD3/CD28 Abs and TGF-β1 in the absence or presence of the iRGD or iRGE peptide. The resulting cells were subjected to flow cytometry to analyze the expression of CD25 and Foxp3 in the CD4+ T cells (FIG. 33A) and the expression of the αvβ5 integrin and NRP-1 on CD4+CD25+Foxp3+ iTregs (FIG. 33B). The bar diagram in (FIG. 33C) summarizes the proportion of NRP-1+ cells among the iTregs. The statistical analysis used was the one-way ANOVA; p=0.8221. n=3 per group.
The proportion of apoptotic αvβ5 integrin+ iTregs (FIG. 34) and CD4+Foxp3neg T cells (FIG. 35) was quantitated by measuring cleaved caspase 3 using flow cytometry. The statistical analysis used was Welch's t test; p=0.0705 (n=3). The dot plots and histograms of FIG. 33C and FIG. 35 show representative data from the 3 independent experiments. The error bars indicate the mean±standard error; N.S., not significant.

metastatic PDAC = conditions: in combination with gemcitabine (Gem) and nab-paclitaxel (Nab-P), phase 1b; cited from earlier work
[2] = tested on: orthotopic KPC-derived PDAC tumors; experiment: Treatment study in orthotopic syngeneic KPC-derived PDAC mice: tumor weight; type: in vivo, mouse; conditions: 3 times a week for 2 weeks
Description: Syngeneic PDAC mice were generated by orthotopic pancreatic injections of 5.0×10^5 KPC-derived PDAC cells into 8- to 10-week-old C57B6129SF1/J hybrid mice (Jackson™), which are the offspring of a cross between C57BL/6J females and 129S1/SvImJ males. In some experiments, the tumor growth was measured by luminescence imaging.
The treatment studies in orthotopic syngeneic PDAC mice were performed as follows. Eight days after orthotopic implantation of 5.0×10^5 KPC-derived PDAC cells, the mice were randomized into respective treatment cohorts, such as intravenous (IV) phosphate buffered saline (PBS) alone, IV iRGD alone (300 μg/25 g), IV PBS+IP antimouse PD-L1 mAb (200 μg/mouse; clone MIH6; BioLegend™), IV iRGD+IP anti-mouse PD-L1 mAb, IV PBS+IV Gem (4 mg/kg; MilliporeSigma™), and IV iRGD+IV GEM+IP anti-mouse PD-L1 mAb. The treatment was given 3 times a week for 2 weeks starting 8 days after tumor cell implantation. The tumors and major organs were harvested at the end of the studies on day 22, weighed, and processed for flow cytometry, IF, and IHC. The treatment studies were terminated according to the guidelines by the IACUC at Columbia University. Treatment studies in transgenic KPC mice were performed as previously described.
C57B6129SF1/J hybrid mice bearing orthotopic KPC-derived PDAC tumors were treated with PBS or iRGD 3 times a week for 2 weeks. […]

[3] = peptide 100 μM, anti-CD3/CD28 Abs and TGF-β1

Sequence: CRGDKGPDC [iRGD]
- apoptosis of CD4+Foxp3neg T cells (cleaved caspase 3) ([1]; flow cytometry): Neither iRGD nor iRGE increased the apoptosis
- apoptosis of αvβ5 integrin+ Tregs (cleaved caspase 3) ([1]; flow cytometry): induces apoptosis of αvβ5 integrin^+ Tregs in an RGD-dependent manner; also recorded: increased apoptosis
- proportion of NRP-1-positive iTregs ([1]; peptide 100 μM): did not alter the proportion
- proportion of CD4+CD25+Foxp3+ iTregs [1, 3]: reduction
- αvβ5 integrin-positive population among the iTregs [1, 3]: reduction
- efficacy against metastatic PDAC (metastatic PDAC): promising preliminary efficacy
- tumor growth (tumor weight at end of study) [2]: did not inhibit tumor growth; also recorded: did not affect tumor growth
